Assay [1] has as its system 14-3-3/Pin1 complex. Details: method as in PMID 34047554. Particulars: 100 μM compound; cited from earlier work.
In assay [2] the target is T1, 14-3-3/Pin1 complex (Homo sapiens, UniProt P63104).
T1 construct: made in house; host or cells: NiCo21 (DE3) E. coli
Briefly: FA peptide screen, 14-3-3ζ titration to client peptide and compound: Pin1. The class given is binding. Particulars: 250 μM compound. The procedure:
(§1) Since the hub protein 14-3-3 binds to hundreds of phosphoprotein partners, selectivity of PPI stabilization is a major challenge. The interplay of chemical reactivity, and the topology and functionality of the composite binding pocket shaped by 14-3-3 and Tau potentially provide entries towards selective stabilization. […] Here, 14-3-3ζ was titrated to a constant concentration of client peptide (100 nM) and compound (250 μM) to determine the SF250μM values for the particular 14-3-3 PPI. A variety of 14-3-3 binding proteins was represented in this client panel whereby the size and hydrophobicity of the +1 amino acid were varied. […]
chromatography (HisTrap high performance cartridges, Cytiva). […]
(§2) 0.1% (v/v) Tween20, 0.1% (w/v) BSA). […] Measurements were performed directly after plate preparation, using a Tecan SPARK plate reader at room temperature ( λex: 485±20 nm; λem: 535±25 nm; mirror: automatic; flashes: 30; settle time: 1 ms; gain: optimal; Z -position: calculated from well). […] All data were analyzed using GraphPad Prism (10.0.1) and fitted with a four -parameter logistic model (4PL) to determine binding affinities (dissociation constant, KD). […]
(§3) Fluorescence Anisotropy – peptide screen […]

The target of a further assay is T2, 14-3-3ζ/p65 peptide (Homo sapiens, UniProt P63104).
T2 construct: made in house; host or cells: NiCo21 (DE3) E. coli
Put plainly: FA peptide screen, 14-3-3ζ titration to client peptide and compound: p65. Format: binding. Particulars: 250 μM compound, 100 nM peptide; +1 Ile. The procedure:
as §1
(§4) chromatography (HisTrap high performance cartridges, Cytiva). […] Dialyzed protein was concentrated to ∼40 mg/mL, analyzed by Q -Tof LC/MS, and aliquots were flash -frozen for storage at −80 °C. […]
as §2, §3

The next assay has as its target T3, 14-3-3ζ/ERRγ peptide (Homo sapiens, UniProt P63104).
T3 construct: made in house; host or cells: NiCo21 (DE3) E. coli
Briefly: FA peptide screen, 14-3-3ζ titration to client peptide and compound: ERRγ. Format: binding. Particulars: 250 μM compound, 100 nM peptide; +1 Cys. The procedure: as §1, §4, §2, §3

For a further assay, the target named is T4, 14-3-3ζ/CFTR peptide (Homo sapiens, UniProt P63104).
T4 construct: made in house; host or cells: NiCo21 (DE3) E. coli
Put plainly: FA peptide screen, 14-3-3ζ titration to client peptide and compound: CFTR. The class given is binding. Particulars: 250 μM compound, 100 nM peptide; +1 Val. How it is done:
as §1, §4, §2, §3

T1 sequence (P63104 whole entry, other chains not shown): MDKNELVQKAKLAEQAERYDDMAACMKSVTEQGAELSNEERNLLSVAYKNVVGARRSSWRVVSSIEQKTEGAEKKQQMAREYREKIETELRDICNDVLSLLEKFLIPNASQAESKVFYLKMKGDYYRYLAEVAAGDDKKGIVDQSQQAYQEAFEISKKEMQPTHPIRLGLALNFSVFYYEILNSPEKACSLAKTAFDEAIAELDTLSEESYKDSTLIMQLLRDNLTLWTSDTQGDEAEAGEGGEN
T4 sequence (P63104 whole entry): as the sequence (P63104 whole entry, other chains not shown) above
T4 sequence (P13569 747-774 partner): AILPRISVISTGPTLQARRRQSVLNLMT
T3 sequence (P63104 whole entry, other chains not shown): as the sequence (P63104 whole entry, other chains not shown) above
T2 sequence (P63104 whole entry, other chains not shown): as above

With `O=Cc1ccc(-n2ccnc2-c2ccccc2)cc1Br` [Compound 1], the “SF100μM for stabilization of the 14-3-3/Pin1 complex” value in the assay on 14-3-3/Pin1 complex [1] is on record as 10.
For `CCc1ccc(-c2nccn2-c2ccc(C=O)c(Br)c2)cc1` [Compound 18], at 14-3-3/Pin1 complex [2] (100 nM Pin1 peptide, 14-3-3ζ titrated), the “SF250μM for 14-3-3/Pin1 PPI stabilization” value is 3.9. For the same compound, the “stabilization of 14-3-3/Pin1 peptide (in words)” value at 14-3-3/Pin1 complex [2] (100 nM peptide, +1 Trp) is recorded as “no significant stabilization”. Moreover, at 14-3-3ζ/p65 peptide, the “stabilization of 14-3-3/p65 peptide (in words)” value is reported as “minor off-target effects”. In addition, the “stabilization of 14-3-3/ERRγ peptide (in words)” value on 14-3-3ζ/ERRγ peptide is listed as “did not show significant stabilizing activity”. Besides, the “stabilization of 14-3-3/CFTR peptide (in words)” value at 14-3-3ζ/CFTR peptide is “minor off-target effects”.

The record behind these values is PMC11892739, “Site-specific molecular glues for the 14-3-3/Tau pS214 protein–protein interaction via reversible covalent imine tethering” (RSC Medicinal Chemistry, 2025).
